The subject of experiment [1] is Lepidium sativum. As to the kind of experiment: Inhibition of growth of Lepidium sativum hypocotyl at 1.5 mM relative to control. In kind it is functional. The note with it: read-out: GI.
Experiment [2] relates to Cucumis sativus. As to the kind of experiment: Inhibition of growth of Cucumis sativus (cucumber) root at 0.5 mM relative to control. The format is functional. The note with it: read-out: GI.
Experiment [3] deals with Cucumis sativus. The experiment is described as follows: Inhibition of growth of Cucumis sativus (cucumber) hypocotyl at 0.5 mM relative to control. The format is functional. As to conditions: read-out: GI.
Experiment [4] can be described thus: Inhibition of cytosolic aminopeptidase.
The test system of experiment [5] is Lepidium sativum. The experiment is described as follows: Inhibition of growth of Lepidium sativum hypocotyl at 0.05 mM relative to control. The note with it: read-out: GI. In kind it is functional.
Experiment [6] has as its system Cucumis sativus. The experiment is described as follows: Inhibition of growth of Cucumis sativus (cucumber) root at 0.15 mM relative to control. As to conditions: read-out: GI. The format is functional.
In experiment [7] the test system is Lepidium sativum. As to the kind of experiment: Inhibition of growth of Lepidium sativum root at 0.5 mM relative to control. In kind it is functional. As to conditions: read-out: GI.
For experiment [8], the system named is Cucumis sativus. The experiment is described as follows: Inhibition of growth of Cucumis sativus (cucumber) root at 1.5 mM relative to control. The format is functional. The note with it: read-out: GI.
Experiment [9] relates to Lepidium sativum. As to the kind of experiment: Inhibition of growth of Lepidium sativum root at 0.15 mM relative to control. The note with it: read-out: GI. The format is functional.
Experiment [10] relates to Cucumis sativus. The experiment is described as follows: Inhibition of growth of Cucumis sativus (cucumber) hypocotyl at 0.05 mM relative to control. In kind it is functional. As to conditions: read-out: GI.
The test system of experiment [11] is Lepidium sativum. The experiment is described as follows: Inhibition of growth of Lepidium sativum hypocotyl at 0.5 mM relative to control. In kind it is functional. The note with it: read-out: GI.
Experiment [12] has as its system Lepidium sativum. The experiment is described as follows: Inhibition of growth of Lepidium sativum hypocotyl at 0.15 mM relative to control. In kind it is functional. As to conditions: read-out: GI.
Experiment [13] deals with Cucumis sativus. The experiment is described as follows: Inhibition of growth of Cucumis sativus (cucumber) root at 0.05 mM relative to control. In kind it is functional. The note with it: read-out: GI.
Experiment [14] has as its system Lepidium sativum. As to the kind of experiment: Inhibition of growth of Lepidium sativum root at 0.05 mM relative to control. As to conditions: read-out: GI. In kind it is functional.
Experiment [15] relates to Lepidium sativum. As to the kind of experiment: Inhibition of growth of Lepidium sativum root at 1.5 mM relative to control. The note with it: read-out: GI. The format is functional.
Experiment [16] has as its system Cucumis sativus. As to the kind of experiment: Inhibition of growth of Cucumis sativus (cucumber) hypocotyl at 1.5 mM relative to control. In kind it is functional. As to conditions: read-out: GI.
Experiment [17] deals with Cucumis sativus. The experiment is described as follows: Inhibition of growth of Cucumis sativus (cucumber) hypocotyl at 0.15 mM relative to control. In kind it is functional. The note with it: read-out: GI.
A short description of experiment [18]: Inhibition of microsomal aminopeptidase.

Calls of active or inactive are those of the source. The rule behind the calls is not given here.

In the case of `N[C@@H](Cc1ccccc1)[C@H](O)P(=O)(O)O` (stereo in doubt), the inhibition of growth at 1500 µM in the experiment on Lepidium sativum [1] stood at 68%; in the experiment on Cucumis sativus [8], 83%; in the experiment on Lepidium sativum [15], 92%; in the experiment with Cucumis sativus [16], 64%. Besides, the inhibition of growth at 500 µM with Cucumis sativus [2] turned out to be 81%; with Cucumis sativus [3] it was 56%; in the experiment on Lepidium sativum [7] it was 87%; with Lepidium sativum [11] it was 64%. Also, the inhibition result in experiment [4] and in experiment [18] was “inactive” each time. For the same compound, the inhibition of growth at 50 µM turned out to be 22% in the experiment on Lepidium sativum [5], 36% with Cucumis sativus [10], 69% in the experiment with Cucumis sativus [13] and 82% with Lepidium sativum [14]. Besides, the inhibition of growth at 150 µM in the experiment with Cucumis sativus [6] was 75%; in the experiment with Lepidium sativum [9], 86%; in the experiment with Lepidium sativum [12] it was 46%; in the experiment on Cucumis sativus [17], 45%.

Consider `O=C(O)CNCP(=O)(O)O` [GLYPHOSATE], for which the inhibition of growth at 1500 µM in the experiment with Lepidium sativum [1] worked out at 44%; in the experiment on Cucumis sativus [8], 84%; in the experiment with Lepidium sativum [15], 93%; in the experiment with Cucumis sativus [16], 22%. In addition, the inhibition of growth at 500 µM in the experiment on Cucumis sativus [2] turned out to be 78%; with Lepidium sativum [7] it was 90%; with Lepidium sativum [11] it was 20%. Besides, the results for the inhibition of growth at 50 µM with Lepidium sativum [5], in the experiment with Cucumis sativus [13] and in the experiment on Lepidium sativum [14] were 13%, 60% and 86%, respectively. The inhibition of growth at 150 µM worked out at 71% with Cucumis sativus [6], 88% in the experiment with Lepidium sativum [9] and 16% with Lepidium sativum [12].

Take `N[C@H](Cc1ccccc1)[C@@H](O)P(=O)(O)O` (stereo in doubt): the inhibition of growth at 1500 µM stood at 54% with Lepidium sativum [1], 80% with Cucumis sativus [8], 88% in the experiment with Lepidium sativum [15] and 49% with Cucumis sativus [16]. For the same compound, the inhibition of growth at 500 µM came to 73% with Cucumis sativus [2], 37% with Cucumis sativus [3] and 74% with Lepidium sativum [7]. Further, the inhibition entry in experiment [4] and in experiment [18] was “inactive” throughout. For the same compound, the inhibition of growth at 50 µM in the experiment with Lepidium sativum [5] is 16%; with Cucumis sativus [10], 23%; in the experiment with Cucumis sativus [13], 51%; in the experiment with Lepidium sativum [14] it was 36%. Moreover, the inhibition of growth at 150 µM is 68% in the experiment with Cucumis sativus [6], 66% in the experiment on Lepidium sativum [9], 9% in the experiment with Lepidium sativum [12] and 33% with Cucumis sativus [17].
